Data reported in article PMC8006935, “Study of Combinatorial Drug Synergy of Novel Acridone Derivatives With Temozolomide Using in-silico and in-vitro Methods in the Treatment of Drug-Resistant Glioma” (Frontiers in Oncology, 2021).
Where two headings read alike, the source gives them in different places.

How the values were obtained:
[1] = pKa by UV-Vis spectrophotometer; format: physicochemical
Protocol: Characterization of acridone derivatives AC2, AC7, and AC26 were carried out by using all the chemicals of analytical grade. Hydrochloric acid and sodium hydroxide were procured from Sisco Research Lab Pvt. Ltd (Mumbai, India). Potassium dihydrogen orthophosphate, methanol and ortho-phosphoric acid (85% pure) was received from Loba Chemie Pvt. Ltd. (Mumbai, India). Sodium chloride was received from SD Fine-Chem Limited (Mumbai, India). Milli-pore water was used throughout the study. Chemical information like the molecular weight of compounds was determined by obtaining ESI-MS spectroscopy using methanol as solvent. pH calculated by using pH analyzer (Lab India) and PKa determined by using UV-Vis spectrophotometer (Shimadzu, Japan). Melting point was calculated by Digital Melting point apparatus (Veego India). Lipophilicity was determined by using software like Chem Draw 15 and ALGOPS 2.1 ([16]). In order to determine the Blood Brain Barrier (BBB) permeability of the compounds, we have used Online BBB Predictor (https://www.cbligand.org/BBB/predictor.php) using SVM Machine Learning algorithm and PubChem as the fingerprint ([17]).

[2] = Sulforhodamine B assay, Vero control cells; format: cell-based; details: African green monkey, Vero cells (normal kidney epithelial cells), SRB, read-out: Vero cell Line CC50
Protocol: (§1) In order to test the growth inhibition potential of the TMZ and Acridone derivatives on Glioma, the U-87 (Uppsala 87) Glioma cell lines and T-98 (Temozolomide resistant) Glioma cell lines were treated with Temozolomide (TMZ) and Acridone derivatives AC2, AC7, and AC26. The African Green Monkey Kidney Vero cell lines were used as control for the study. The Vero cell lines were obtained from the National Center for Cell Sciences (NCCS), Pune, while the U-87 and T-98 cell lines were carried in the lab of Dr. GJ Peters, Cancer Center Amsterdam (CCA), VU University Medical Center, Amsterdam, Netherlands. The Mycoplasma testing was done by using the Universal Mycoplasma Detection Kit (ATCC® 30-1012K™) every 6 months. The Vero cell lines have been used as control as they are normal kidney epithelial cells and are non-cancerous in nature. The Vero cell lines have been routinely used for testing cytotoxicity of small molecules by various researchers ([22], [23]). Also, in our previous study, Vero cell lines have been used for testing safety and efficacy of Acridone derivatives for Lung, Cervical, and Breast Cancer studies ([13]).
(§2) Cell viability was found using the Sulforhodamine B (SRB) assay to measure the cellular protein content which provides better sensitivity in comparison to MTT assay ([24]). Moreover, as this method is dependent on the property of the SRB dye, it acts by binding to proteins under slightly acidic conditions and can be exposed to basic conditions for its extraction. The resulting amount of bound dye is then utilized as a proxy for cell mass ([25]). This cell mass can then be extrapolated to measure cell growth.
Glioma cells were cultured in Gibco (RPMI 1640) complemented with 10% fetal calf serum (Gibco). The cultures were then treated with trypsin-EDTA in order to detach/separate the cells from their culture flasks. The quickly proliferating cells were harvested, counted and plated at suitable concentrations in 96-well microplates. These microplates were subsequently incubated for 24 h. After incubation, drug compounds were dissolved in the culture media and placed in 96 well plates in triplicates, which were again incubated at 37°C under 5% CO2 for 72 h. 72 h later, the plates were removed and the cells were treated with cold Trichloroacetic acid (TCA) to fix the cultures and. […] Thereafter, absorbance of the solution was measured at 540 nm utilizing a microplate reader. Absorbance readings (triplicate values) recorded were used to calculate percentage growth inhibition due to the effect of drugs using the following equations.
% Cell growth = Absorbance sample/Absorbance of control or untreated × 100 […]
The IC50 was calculated based on the log graph sheet which was developed in-house at the CCA, VU University Medical Center. […]

[3] = test system: U-87 (Uppsala 87) Glioma cell lines; assay: Sulforhodamine B assay, U-87 drug sensitive Glioma cells; format: cell-based; details: for U-87/WT SI: SI = CC50 of Vero cell line /IC50 of Cancer cell line after 72 h; for IC50: 72 h, SRB, Mean ± Standard Deviations in Table 4, read-out: U-87/WT IC50
Protocol: as §1, §2
(§3) Glioma cells were cultured in Gibco (RPMI 1640) complemented with 10% fetal calf serum (Gibco). The cultures were then treated with trypsin-EDTA in order to detach/separate the cells from their culture flasks. The quickly proliferating cells were harvested, counted and plated at suitable concentrations in 96-well microplates. These microplates were subsequently incubated for 24 h. After incubation, drug compounds were dissolved in the culture media and placed in 96 well plates in triplicates, which were again incubated at 37°C under 5% CO2 for 72 h. 72 h later, the plates were removed and the cells were treated with cold Trichloroacetic acid (TCA) to fix the cultures and. 0.4% of SRB dissolved in 1% acetic acid was then added to the culture in order to stain the cells. Next, the bound stain was dissolved in 150 μl of 10 mM unbuffered Tris base left on a gyrator shaker. Thereafter, absorbance of the solution was measured at 540 nm utilizing a microplate reader. Absorbance readings (triplicate values) recorded were used to calculate percentage growth inhibition due to the effect of drugs using the following equations.
(§4) % Cell growth = Absorbance sample/Absorbance of control or untreated × 100
(§5) % Growth inhibition = 100 - % cell growth
(§6) The IC50 was calculated based on the log graph sheet which was developed in-house at the CCA, VU University Medical Center.
(§7) Selectivity Index (SI) is a ratio that measures the window between cytotoxicity and anticancer activity of the drugs ([26]). […] Here, IC50 is the inhibition concentration for inhibiting 50% of cancer cells and CC50 is cytotoxic concentration causing death of 50% viable cells in the host.

[4] = test system: T-98 (Temozolomide resistant) Glioma cell lines; assay: Sulforhodamine B assay, T-98 TMZ resistant Glioma cells; format: cell-based; details: for IC50: Glioma cell; for T-98/TMZRES SI: SI = CC50 of Vero cell line /IC50 of Cancer cell line after 72 h
Protocol: as §1, §2, §3, §4, §5, §6, §7

[5] = Acute Oral Toxicity - Fixed Dose procedure; format: in vivo; details: for clinical sign of toxicity: oral, single dose, 14 days observation, female albino Wistar rats
Protocol: Animal study was conducted for acridone derivatives AC2, AC7, and AC26 alone and in combination with Temozolomide for Acute Oral Toxicity - Fixed Dose procedure. The Institutional Animal Ethics Committee bearing CPCSEA/IAEC/P-52/2016 was approved for undertaking the study. Acute oral toxicity was conducted on female albino Wistar rats for 8–12 weeks and were maintained at 25 ± 2 °C in a conditioned room with 50–60% of humidity and free access to food and water was given. Rats were kept for fasting overnight (12 h) before dosing and weights were recorded periodically. Rats in two groups were given acridone derivatives alone at a dose of […], rats in two groups were given a combination of Temozolomide : acridone derivatives at dose of 10:1 mg/kg and 15:1.5 mg/kg body weight and one group was kept as control. Dose of Temozolomide was taken as per previously published article ([50]). Compounds alone and combination were suspended in 2.0% of Tween 80 in normal saline and control group was taken for vehicle only. After administering the compound, food was not provided for 3 h. All the rats were monitored periodically for 1 h upto 12 h on the 1st day and thereafter twice in a day for mortality, behavioral changes, signs and symptoms of toxicity for 14 days. Individual weights of rats were taken for all the 14 days and study was conducted twice for each dose.

[6] = 72 h, SRB, Mean ± Standard Deviations in Table 4, read-out: T-98/TMZRES IC50
[7] = drug administered individually, drug resistant cells, read-out: Initial IC50

Row | Structure (SMILES) | pKa [1] | CC50 at 72 h [2] [µM] | U-87/WT SI [3] | IC50 ([3]; U87WT) [µM] | IC50 [4, 6] [µM] | IC50 [4, 7] [µM] | T-98/TMZRES SI [4] | Body weight (g) Day 0 ([5]; 300 mg/kg oral) [g] | Body weight (g) Day 1 ([5]; 300 mg/kg oral) [g] | Body weight (g) Day 2 ([5]; 300 mg/kg oral) [g] | Body weight (g) Day 3 ([5]; 300 mg/kg oral) [g] | Body weight (g) Day 4 ([5]; 300 mg/kg oral) [g] | Body weight (g) Day 5 ([5]; 300 mg/kg oral) [g] | Body weight (g) Day 6 ([5]; 300 mg/kg oral) [g] | Body weight (g) Day 7 ([5]; 300 mg/kg oral) [g] | Body weight (g) Day 8 ([5]; 300 mg/kg oral) [g] | Body weight (g) Day 9 ([5]; 300 mg/kg oral) [g] | Body weight (g) Day 10 ([5]; 300 mg/kg oral) [g] | Body weight (g) Day 11 ([5]; 300 mg/kg oral) [g] | Body weight (g) Day 12 ([5]; 300 mg/kg oral) [g] | further results
1 | O=C(NN=Cc1ccccc1Cl)c1cccc2c(=O)c3ccccc3[nH]c12 [AC7, N'-(2-chlorobenzylidene)-9-oxo-9,10-dihydroacridine-4-carbohydrazide] | 9.23 | 48.2 | 8.49 | 5.67 ± 0.58 | 1.05 ± 0.18 | 1.05 | 45.87 | 175 ± 10 | 176 ± 14 | 178 ± 10 | 181 ± 8 | 183 ± 12 | 185 ± 15 | 188 ± 11 | 192 ± 12 | 194 ± 12 | 196 ± 14 | 195 ± 11 | 197 ± 16 | 199 ± 12 | Body weight (g) Day 13 ([5]; 300 mg/kg oral): 202 ± 10 g; Body weight (g) Day 14 ([5]; 300 mg/kg oral): 205 ± 18 g; Body weight (g) Day 0 ([5]; 2000 mg/kg oral): 180 ± 8 g; Body weight (g) Day 1 ([5]; 2000 mg/kg oral): 181 ± 12 g; Body weight (g) Day 2 ([5]; 2000 mg/kg oral): 183 ± 8 g; Body weight (g) Day 3 ([5]; 2000 mg/kg oral): 185 ± 14 g; Body weight (g) Day 4 ([5]; 2000 mg/kg oral): 187 ± 6 g; Body weight (g) Day 5 ([5]; 2000 mg/kg oral): 189 ± 11 g; Body weight (g) Day 6 ([5]; 2000 mg/kg oral): 192 ± 16 g; Body weight (g) Day 7 ([5]; 2000 mg/kg oral): 193 ± 15 g; Body weight (g) Day 8 ([5]; 2000 mg/kg oral): 197 ± 10 g; Body weight (g) Day 9 ([5]; 2000 mg/kg oral): 198 ± 18 g; Body weight (g) Day 10 ([5]; 2000 mg/kg oral): 201 ± 8 g; Body weight (g) Day 11 ([5]; 2000 mg/kg oral): 204 ± 10 g; Body weight (g) Day 12 ([5]; 2000 mg/kg oral): 206 ± 14 g; Body weight (g) Day 13 ([5]; 2000 mg/kg oral): 208 ± 12 g; Body weight (g) Day 14 ([5]; 2000 mg/kg oral): 211 ± 16 g; clinical sign of toxicity [5]: No clinical sign of toxicity was observed
2 | CC(=NNC(=O)c1cccc2c(=O)c3ccccc3[nH]c12)c1ccccc1O [AC26, N'(1-(2-hydroxyphenyl)ethylidene)-9-oxo-9,10-dihydroacridine-4-carbohydrazide] | 6.52 | 66.1 | 73.42 | 0.9 ± 0.1 | 0.76 ± 0.053 | 0.76 | 86.94 | 178 ± 10 | 182 ± 8 | 183 ± 12 | 184 ± 16 | 187 ± 10 | 189 ± 16 | 191 ± 12 | 194 ± 18 | 196 ± 12 | 199 ± 10 | 201 ± 14 | 202 ± 16 | 205 ± 12 | IC50 ([3]; listed as Acridone 26): 1 µM; Body weight (g) Day 13 ([5]; 300 mg/kg oral): 207 ± 8 g; Body weight (g) Day 14 ([5]; 300 mg/kg oral): 209 ± 18 g; Body weight (g) Day 0 ([5]; 2000 mg/kg oral): 181 ± 11 g; Body weight (g) Day 1 ([5]; 2000 mg/kg oral): 182 ± 15 g; Body weight (g) Day 2 ([5]; 2000 mg/kg oral): 185 ± 10 g; Body weight (g) Day 3 ([5]; 2000 mg/kg oral): 188 ± 11 g; Body weight (g) Day 4 ([5]; 2000 mg/kg oral): 189 ± 18 g; Body weight (g) Day 5 ([5]; 2000 mg/kg oral): 193 ± 22 g; Body weight (g) Day 6 ([5]; 2000 mg/kg oral): 195 ± 16 g; Body weight (g) Day 7 ([5]; 2000 mg/kg oral): 199 ± 19 g; Body weight (g) Day 8 ([5]; 2000 mg/kg oral): 200 ± 14 g; Body weight (g) Day 9 ([5]; 2000 mg/kg oral): 202 ± 10 g; Body weight (g) Day 10 ([5]; 2000 mg/kg oral): 206 ± 8 g; Body weight (g) Day 11 ([5]; 2000 mg/kg oral): 207 ± 9 g; Body weight (g) Day 12 ([5]; 2000 mg/kg oral): 209 ± 4 g; Body weight (g) Day 13 ([5]; 2000 mg/kg oral): 211 ± 12 g; Body weight (g) Day 14 ([5]; 2000 mg/kg oral): 215 ± 20 g; clinical sign of toxicity [5]: No clinical sign of toxicity was observed
